Here are results for 16 compounds from US20230183218A1, “CONDENSED SUBSTITUTED HYDROPYRROLES AS ANTAGONISTS OF THE MUSCARINIC ACETYLCHOLINE RECEPTOR M4” (Vanderbilt University, priority 2020, published 2023).

Molecules are shown by their SMILES. Bounds are passed on as bounds.

One assay deals with T1, Human M4 (Homo sapiens, UniProt P08173).
T1 construct: expressed in transfected cells; host or cells: CHO-K1 (ATCC), stably co-expressing chimeric G protein Gqi5
T1 sequence (P08173 1-479): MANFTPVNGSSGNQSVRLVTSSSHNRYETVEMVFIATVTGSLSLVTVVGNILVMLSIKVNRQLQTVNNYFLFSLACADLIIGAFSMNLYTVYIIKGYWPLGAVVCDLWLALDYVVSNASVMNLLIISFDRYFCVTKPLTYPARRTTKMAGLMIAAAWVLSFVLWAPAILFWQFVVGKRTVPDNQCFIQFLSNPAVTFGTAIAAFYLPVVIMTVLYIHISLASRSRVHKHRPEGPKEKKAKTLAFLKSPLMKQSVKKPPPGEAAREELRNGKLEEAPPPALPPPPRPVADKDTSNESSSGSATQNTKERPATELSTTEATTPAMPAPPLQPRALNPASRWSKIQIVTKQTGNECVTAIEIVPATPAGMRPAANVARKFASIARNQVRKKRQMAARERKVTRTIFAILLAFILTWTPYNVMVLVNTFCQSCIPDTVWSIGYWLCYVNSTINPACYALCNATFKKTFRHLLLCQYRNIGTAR
Kind of assay: mAChR M4 cell-based functional assay (calcium flux, antagonist mode vs EC80 acetylcholine), human M4/Gqi5/CHO-K1 cells. To be noted: for remaining activity at 30 µM: CHO-K1, read-out: Human M4 Emin (%); for IC50: decrease of response elicited by EC80 acetylcholine, human M4/Gqi5 CHO-K1 cells. The gist of the method:
(§1)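 CHO-K1 cells stably expressing human or rat M4 with Gqi5, Fluo-4 loaded; calcium measured by fluorescence ratio on FDSS. Compound added, then EC20 acetylcholine at 143 s and EC80 at 268 s; IC50 from decrease of EC80 response, four-parameter logistic fit.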
(In general: Calcium flux is commonly read through the fluorescence of an indicator in the cells.)

The target of another assay is T2, Rat M4 (Rattus norvegicus, UniProt P08485).
T2 construct: expressed in transfected cells; host or cells: CHO-K1 (ATCC), stably co-expressing chimeric G protein Gqi5
T2 sequence (P08485 1-478): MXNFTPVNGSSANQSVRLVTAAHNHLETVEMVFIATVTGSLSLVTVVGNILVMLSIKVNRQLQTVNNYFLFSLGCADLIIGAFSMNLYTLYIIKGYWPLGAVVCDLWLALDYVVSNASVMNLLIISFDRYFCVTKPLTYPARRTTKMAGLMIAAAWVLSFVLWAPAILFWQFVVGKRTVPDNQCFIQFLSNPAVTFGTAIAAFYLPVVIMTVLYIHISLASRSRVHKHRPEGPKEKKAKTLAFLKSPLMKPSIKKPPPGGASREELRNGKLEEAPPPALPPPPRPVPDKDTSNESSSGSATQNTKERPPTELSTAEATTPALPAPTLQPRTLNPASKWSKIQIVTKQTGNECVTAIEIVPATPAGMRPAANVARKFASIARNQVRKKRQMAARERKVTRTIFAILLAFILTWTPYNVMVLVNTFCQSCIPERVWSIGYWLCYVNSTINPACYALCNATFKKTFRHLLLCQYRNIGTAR
The assay can be described thus: mAChR M4 cell-based functional assay (calcium flux, antagonist mode vs EC80 acetylcholine), rat M4/Gqi5/CHO-K1 cells. As to conditions: for remaining activity at 30 µM: CHO-K1, read-out: Rat M4 Emin (%); for IC50: decrease of response elicited by EC80 acetylcholine, rat M4/Gqi5 CHO-K1 cells. The gist of the method: as §1

Setting [1] is: % ACh maximum at 30 μM, human M4.

With `CC1(C)CC(N2C[C@H]3C[C@H](Nc4ccc(-c5ccc(F)cc5)nn4)C[C@H]3C2)CCO1` (stereo partly drawn) [compound 54, (3aR,5s,6aS)-2-(2,2-dimethyltetrahydro-2H-pyran-4-yl)-N-(6-(4-fluorophenyl)pyridazin-3-yl)octahydrocyclopenta[c]pyrrol-5-amine], the remaining activity at 30 µM amounted to 3% at Human M4 (setting [1]) and 5% on Rat M4 (% ACh maximum at 30 μM, rat M4). For the same compound, the values for the IC50 on Human M4 and at Rat M4 were 32.9 nM and 534 nM, respectively.
The matching figures for `CC1(C)CC(N2C[C@H]3C[C@H](Nc4ccc(-c5cc(F)ccc5F)nn4)C[C@H]3C2)CCO1` (stereo partly drawn) [compound 55, (3aR,5s,6aS)-N-(6-(2,5-difluorophenyl)pyridazin-3-yl)-2-(2,2-dimethyltetrahydro-2H-pyran-4-yl)octahydrocyclopenta[c]pyrrol-5-amine]: 3%, 5%, 13.5 nM and 425 nM.
The matching figures for `CC1(C)CC(N2C[C@H]3C[C@H](Nc4ccc(-c5cccnc5)nn4)C[C@H]3C2)CCO1` (stereo partly drawn) [compound 56, (3aR,5s,6aS)-2-(2,2-dimethyltetrahydro-2H-pyran-4-yl)-N-(6-(pyridin-3-yl)pyridazin-3-yl)octahydrocyclopenta[c]pyrrol-5-amine]: 4%, 14%, 37.7 nM and 7250 nM.
The matching figures for `Cc1cnn(C)c1-c1ccc(N[C@H]2C[C@@H]3CN(C4CCOC(C)(C)C4)C[C@@H]3C2)nn1` (stereo partly drawn) [compound 57, (3aR,5s,6aS)-N-(6-(1,4-dimethyl-1H-pyrazol-5-yl)pyridazin-3-yl)-2-(2,2-dimethyltetrahydro-2H-pyran-4-yl)octahydrocyclopenta[c]pyrrol-5-amine]: 2%, 9%, 28.9 nM and 2030 nM.
As to `CC1(C)CC(N2C[C@H]3C[C@H](Nc4ccc(N5CCC(F)(F)CC5)nn4)C[C@H]3C2)CCO1` (stereo partly drawn) [compound 58, (3aR,5s,6aS)-N-(6-(4,4-difluoropiperidin-1-yl)pyridazin-3-yl)-2-(2,2-dimethyltetrahydro-2H-pyran-4-yl)octahydrocyclopenta[c]pyrrol-5-amine], the remaining activity at 30 µM turned out to be 3% on Human M4 (setting [1]) and 6% at Rat M4 (% ACh maximum at 30 μM, rat M4). Further, the IC50 at Human M4 was 29.8 nM; at Rat M4, 506 nM.
The matching figures for `CC(=O)Nc1ccc(-c2ccc(N[C@H]3C[C@@H]4CN(C5CCOC(C)(C)C5)C[C@@H]4C3)nn2)cn1` (stereo partly drawn) [compound 59, N-(5-(6-(((3aR,5s,6aS)-2-(2,2-dimethyltetrahydro-2H-pyran-4-yl)octahydrocyclopenta[c]pyrrol-5-yl)amino)pyridazin-3-yl)pyridin-2-yl)acetamide]: 4%, 6%, 76.1 nM and 319 nM.
The matching figures for `CC1(C)CC(N2C[C@H]3C[C@H](Nc4ccc(N5CCOCC5)nn4)C[C@H]3C2)CCO1` (stereo partly drawn) [compound 60, (3aR,5s,6aS)-2-(2,2-dimethyltetrahydro-2H-pyran-4-yl)-N-(6-morpholinopyridazin-3-yl)octahydrocyclopenta[c]pyrrol-5-amine]: 5%, 14%, 49.4 nM and 5170 nM.
The matching figures for `Cn1cc2cc(-c3ccc(N[C@H]4C[C@@H]5CN(C6CCOCC6)C[C@@H]5C4)nn3)ccc2n1` [compound 62, (3aR,5s,6aS)-N-(6-(2-methyl-2H-indazol-5-yl)pyridazin-3-yl)-2-(tetrahydro-2H-pyran-4-yl)octahydrocyclopenta[c]pyrrol-5-amine]: 9%, 11%, 1730 nM and 2130 nM.
With `Cn1cc2cc(-c3ccc(N[C@H]4C[C@@H]5CN(C6CCOC(C)(C)C6)C[C@@H]5C4)nn3)ccc2n1` (stereo partly drawn) [compound 63, (3aR,5s,6aS)-2-(2,2-dimethyltetrahydro-2H-pyran-4-yl)-N-(6-(2-methyl-2H-indazol-5-yl)pyridazin-3-yl)octahydrocyclopenta[c]pyrrol-5-amine], the remaining activity at 30 µM amounted to 3% on Human M4 (setting [1]) and 5% on Rat M4 (% ACh maximum at 30 μM, rat M4). Further, the figures for the IC50 at Human M4 and on Rat M4 were 9.53 nM and 374 nM, respectively.
The matching figures for `Fc1ccc(Cl)c(-c2ccc(N[C@H]3C[C@@H]4CN(C5(C6CCOCC6)CC5)C[C@@H]4C3)nn2)c1` [compound 64, (3aR,5s,6aS)-N-(6-(2-chloro-5-fluorophenyl)pyridazin-3-yl)-2-(1-(tetrahydro-2H-pyran-4-yl)cyclopropyl)octahydrocyclopenta[c]pyrrol-5-amine]: 4%, 32%, 161 nM and greater than 10000 nM.
On to `CC1(C)CC(N2C[C@H]3C[C@H](Nc4ccc([S+]([O-])c5ccccc5)nn4)C[C@H]3C2)CCO1` (stereo partly drawn) [compound 65, (3aR,5s,6aS)-2-(2,2-dimethyltetrahydro-2H-pyran-4-yl)-N-(6-(phenylsulfinyl)pyridazin-3-yl)octahydrocyclopenta[c]pyrrol-5-amine], for which the remaining activity at 30 µM was found to be 5% on Human M4 (setting [1]) and 10% on Rat M4 (% ACh maximum at 30 μM, rat M4).
Turning to `CC1(C)CC(N2C[C@H]3C[C@H](Nc4ccc(S(=O)(=O)C5CCCCC5)nn4)C[C@H]3C2)CCO1` (stereo partly drawn) [compound 66, (3aR,5s,6aS)-N-(6-(cyclohexylsulfonyl)pyridazin-3-yl)-2-(2,2-dimethyltetrahydro-2H-pyran-4-yl)octahydrocyclopenta[c]pyrrol-5-amine], the “Human M4 Emin (%)” value on Human M4 (setting [1]) worked out at 5%. Further, the “Rat M4 Emin (%)” value on Rat M4 (% ACh maximum at 30 μM, rat M4) was determined as 7%. On Rat M4, the concentration for half-maximal inhibition (IC50) amounted to 460 nM.
Take `Fc1ccc(Cl)c(-c2ccc(N[C@H]3C[C@@H]4CN(C5CCC(F)(F)CC5)C[C@@H]4C3)nn2)c1` [compound 67, (3aR,5s,6aS)-N-(6-(2-chloro-5-fluorophenyl)pyridazin-3-yl)-2-(4,4-difluorocyclohexyl)octahydrocyclopenta[c]pyrrol-5-amine]: the remaining activity at 30 µM on Human M4 (setting [1]) came out at 4%; at Rat M4 (% ACh maximum at 30 μM, rat M4), 13%. For the same compound, the figures for the IC50 at Human M4 and on Rat M4 were 2.42 nM and 436 nM, respectively.
The matching figures for `CC1(C)CCC(N2C[C@H]3C[C@H](Nc4ccc(-c5cc(F)ccc5Cl)nn4)C[C@H]3C2)CC1` [compound 68, (3aR,5s,6aS)-N-(6-(2-chloro-5-fluorophenyl)pyridazin-3-yl)-2-(4,4-dimethylcyclohexyl)octahydrocyclopenta[c]pyrrol-5-amine]: 3%, 2%, 2.79 nM and 102 nM.
The matching figures for `Fc1ccc(Cl)c(-c2ccc(N[C@H]3C[C@@H]4CN(C5CC6(COC6)C5)C[C@@H]4C3)nn2)c1` [compound 69, (3aR,5s,6aS)-N-(6-(2-chloro-5-fluorophenyl)pyridazin-3-yl)-2-(2-oxaspiro[3.3]heptan-6-yl)octahydrocyclopenta[c]pyrrol-5-amine]: 4%, 17%, 11.8 nM and 905 nM.
Regarding `CC1(C)C(=O)N(C2CC2)c2nnc(N[C@H]3C[C@@H]4CN(CC5CCOCC5)C[C@@H]4C3)cc21` [compound 70, 7-cyclopropyl-5,5-dimethyl-3-(((3aR,5s,6aS)-2-((tetrahydro-2H-pyran-4-yl)methyl)octahydrocyclopenta[c]pyrrol-5-yl)amino)-5,7-dihydro-6H-pyrrolo [2,3-c]pyridazin-6-one], the remaining activity at 30 µM on Human M4 (setting [1]) stood at 4%; on Rat M4 (% ACh maximum at 30 μM, rat M4) it was 13%. Besides, the IC50 at Human M4 stood at 12.8 nM; at Rat M4, 3970 nM.

In general, IC50 refers to the point on the concentration scale where inhibition reaches its midpoint.
